We go through 1 compound from paper PMC3814793, “Identification of a Plasmodium falciparum Phospholipid Transfer Protein” (The Journal of Biological Chemistry, 2013).

What all share (test): radiolabelled phospholipid transfer between donor and acceptor vesicles
Common to all, as to type: biochemical

One experiment deals with T1, PFA0210cN123 (Plasmodium falciparum, UniProt Q8I298).
T1 construct: gene PF3D7_0104200
Conditions: labelled compound, donor vesicles PC, phosphatidic acid, N-lactosylethanolamine.

Another experiment deals with T2, PFA0210cN99 (Plasmodium falciparum, UniProt Q8I298).
T2 construct: gene PF3D7_0104200
Conditions: labelled compound, donor vesicles PC, phosphatidic acid, N-lactosylethanolamine.

Experiment [1] deals with T3, PITP (rat phosphatidylinositol transfer protein α) (Rattus norvegicus, UniProt P16446).
T3 construct: gene Pitpna
T3 sequence (P16446 2-271): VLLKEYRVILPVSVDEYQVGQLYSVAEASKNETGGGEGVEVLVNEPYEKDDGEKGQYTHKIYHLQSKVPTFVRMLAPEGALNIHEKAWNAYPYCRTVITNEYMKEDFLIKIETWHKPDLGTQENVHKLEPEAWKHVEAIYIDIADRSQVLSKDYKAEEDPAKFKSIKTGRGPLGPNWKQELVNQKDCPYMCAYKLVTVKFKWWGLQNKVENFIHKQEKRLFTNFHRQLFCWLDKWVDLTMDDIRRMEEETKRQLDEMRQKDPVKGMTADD
The following applies: labelled compound; positive control protein; vesicles as in the rows above.

T1 sequence (Q8I298 entry or part of it): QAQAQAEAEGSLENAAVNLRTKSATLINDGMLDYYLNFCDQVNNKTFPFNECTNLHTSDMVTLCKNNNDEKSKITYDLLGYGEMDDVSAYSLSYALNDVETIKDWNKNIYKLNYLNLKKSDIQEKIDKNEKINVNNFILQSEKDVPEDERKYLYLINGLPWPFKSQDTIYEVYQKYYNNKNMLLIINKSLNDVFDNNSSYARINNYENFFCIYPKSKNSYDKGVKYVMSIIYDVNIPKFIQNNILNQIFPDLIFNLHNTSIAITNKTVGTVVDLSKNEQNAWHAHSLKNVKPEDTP
T2 sequence (Q8I298 entry or part of it): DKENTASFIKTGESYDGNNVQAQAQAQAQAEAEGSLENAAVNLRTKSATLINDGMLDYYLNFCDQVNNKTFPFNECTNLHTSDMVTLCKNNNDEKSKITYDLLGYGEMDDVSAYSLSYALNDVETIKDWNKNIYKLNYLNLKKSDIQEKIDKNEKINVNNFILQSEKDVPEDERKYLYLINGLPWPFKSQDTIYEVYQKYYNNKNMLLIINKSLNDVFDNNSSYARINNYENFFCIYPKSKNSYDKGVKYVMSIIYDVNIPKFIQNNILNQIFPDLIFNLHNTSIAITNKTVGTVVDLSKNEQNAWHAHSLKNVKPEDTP

As for `CCCCCCCCCCCCCCCC(=O)OC[C@H](COP(=O)([O-])OCC[N+](C)(C)C)OC(=O)CCCCCCCCCCCCCCC` [L-[α-dipalmitoyl-1-14C]phosphatidylcholine], the “radiolabelled phospholipid transfer between donor and acceptor vesicles” value at PFA0210cN123 was “(PFA0210cN99, PFA0210cN123, and PFA0210cN144, respectively) as the N-terminal residue can transfer phospholipids”; on PFA0210cN99 it was “(PFA0210cN99, PFA0210cN123, and PFA0210cN144, respectively) as the N-terminal residue can transfer phospholipids”; in experiment [1], “transferred PC at levels similar to that of the control protein PITP”.
